BindingDB's records for doi:10.1021/ml300172p (2012)

test: Inhibition of human Shh-induced mouse C3H10T1/2 cell differentiation after 48 hrs by alkaline phosphatase reporter assay

| Structure (SMILES) | IC50 [µM] |
| --- | --- |
| CC1=C2C[C@H]3[C@@H](CC=C4C[C@@H](O)CC[C@@]43C)[C@@H]2CC[C@]12O[C@@H]1C[C@H](C)CN[C@H]1[C@H]2C | 0.6 |
| O=C(C[C@@H]1C/C=C/CCC(=O)O[C@H](c2ccccc2)CNC1=O)NCc1ccc(Cl)cc1 [N-(4-chlorobenzyl)-2-((2R,6S,E)-5,12-dioxo-2-phenyl-1-oxa-4-azacyclododec-8-en-6-yl)acetamide] | > 25 |

test: Inhibition of Smo in mouse C3H10T1/2 cells assessed as inhibition of human Shh-induced cell differentiation after 48 hrs by alkaline phosphatase reporter assay

| Structure (SMILES) | IC50 [µM] |
| --- | --- |
| O=C(C[C@@H]1C/C=C/CCC(=O)N[C@H](Cc2ccccc2)COC1=O)NCc1ccc(Cl)cc1 | 4 |
| O=C(C[C@@H]1C/C=C/CCC(=O)N[C@@H]2c3ccccc3C[C@@H]2OC1=O)NCc1ccc(Cl)cc1 | > 25 |
| O=C(C[C@@H]1C/C=C/CCC(=O)N[C@@H](c2ccccc2)COC1=O)NCc1ccc(Cl)cc1 | 20 |
| O=C(C[C@@H]1C/C=C/CCC(=O)OC[C@@H]2CCCN2C1=O)NCc1ccc(Cl)cc1 | 15 |
| CC(C)N[C@H]1C/C=C/C[C@@H](CC(=O)NCc2ccc(Cl)cc2)C(=O)NC[C@@H](c2ccccc2)OC1=O | > 25 |
| CC(C)[C@@H]1COC(=O)[C@H](CC(=O)NCc2ccc(Cl)cc2)C/C=C/CCC(=O)N1 | 23 |
| C[C@@H]1C/C=C/CCC(=O)N[C@H](c2ccccc2)COC1=O | > 25 |
| C=CCCC(=O)O[C@@H](CNC(=O)[C@@H](CC=C)CC(=O)NCc1ccc(Cl)cc1)c1ccccc1 | > 25 |
| C[C@H]1NC(=O)[C@H](CC(=O)NCc2ccc(Cl)cc2)C/C=C/CCC(=O)O[C@@H]1c1ccccc1 | 11 |
| C[C@@H]1NC(=O)[C@H](CC(=O)NCc2ccc(Cl)cc2)C/C=C/CCC(=O)O[C@@H]1c1ccccc1 | 15 |
| O=C(C[C@@H]1C/C=C/CCC(=O)N[C@H](c2ccc(Cl)cc2)COC1=O)NCc1ccc(Cl)cc1 | 0.6 |
| CC(=O)N[C@@H]1C/C=C/CCC(=O)N[C@H](c2ccccc2)COC1=O | > 25 |
| CCCC[C@@H]1COC(=O)[C@H](CC(=O)NCc2ccc(Cl)cc2)C/C=C/CCC(=O)N1 | > 10 |
| CN1CCN(C(=O)C[C@@H]2C/C=C/CCC(=O)O[C@H](c3ccccc3)CNC2=O)CC1 | > 25 |
| O=C(CN1C/C=C/CCC(=O)N[C@H](c2ccccc2)COC1=O)NCc1ccc(Cl)cc1 | > 25 |
| O=C(C[C@@H]1C/C=C/CCC(=O)OCCNC1=O)NCc1ccc(Cl)cc1 [(S,E)-N-(4-chlorobenzyl)-2-(5,12-dioxo-1-oxa-4-azacyclododec-8-en-6-yl)acetamide] | > 25 |

Continued, values first:

| IC50 [µM] | Structure (SMILES) |
| --- | --- |
| 11 | C[C@H]1[C@@H](c2ccccc2)OC(=O)CCCCC[C@@H](CC(=O)NCc2ccc(Cl)cc2)C(=O)N1C |
| 8 | C[C@H]1C/C=C/C[C@@H](CC(=O)NCc2ccc(Cl)cc2)C(=O)OC[C@@H](c2ccccc2)NC1=O |
| 8 | CN1C[C@@H](c2ccccc2)OC(=O)CC/C=C/C[C@@H](Cc2ccc(Cl)cc2)C1=O |
| 8 | C[C@H]1[C@@H](c2ccccc2)OC(=O)CC/C=C/C[C@@H](CC(=O)NCc2ccc(Cl)cc2)C(=O)N1C |
| 7 | CC(C)(C)OC(=O)C[C@@H]1C/C=C/CCC(=O)N[C@H](c2ccccc2)COC1=O |
| 6 | O=C(C[C@@H]1C/C=C/C[C@H](Cc2ccccc2)C(=O)N[C@H](c2ccccc2)COC1=O)NCc1ccc(Cl)cc1 |
| 5 | O=C(C[C@@H]1C/C=C/CCC(=O)N[C@H](c2ccc(F)cc2)COC1=O)NCc1ccc(Cl)cc1 |
| 5 | O=C(C[C@@H]1C/C=C/CCC(=O)N[C@H](c2ccccc2)COC1=O)NCc1ccc(Cl)cc1 |
| 5 | O=C(C[C@@H]1C/C=C/CCC(=O)N[C@H](C2CCCCC2)COC1=O)NCc1ccc(Cl)cc1 |
| 5 | O=C(C[C@@H]1C/C=C/CCC(=O)O[C@H](c2ccccc2)CNC1=O)NCc1cccc(Cl)c1 |
| 4 | O=C(C[C@@H]1C/C=C/CCC(=O)O[C@H](c2ccccc2)CNC1=O)NCCCC(F)(F)F |
| 4 | C[C@H]1C/C=C\C[C@@H](CC(=O)NCc2ccc(Cl)cc2)C(=O)OC[C@@H](c2ccccc2)NC1=O |
